Reference: patent US20240018161A1, “MODULATORS OF CYSTIC FIBROSIS TRANSMEMBRANE CONDUCTANCE REGULATOR” (VERTEX PHARMACEUTICALS INCORPORATED, priority 2020, published 2024)
Where two headings read alike, the source gives them in different places.

Tests used:
[1] = 13-membered ring
[2] = target: T1, CFTR-mediated chloride transport in human intestinal epithelial enteroid cells (Homo sapiens, UniProt P13569); experiment: Membrane potential dye, Enteroid Assay A; assay type: cell-based; conditions: for EC50: read-out: Ent. A EC50
T1 sequence (P13569 with tags, fused parts or gaps DEL508-508): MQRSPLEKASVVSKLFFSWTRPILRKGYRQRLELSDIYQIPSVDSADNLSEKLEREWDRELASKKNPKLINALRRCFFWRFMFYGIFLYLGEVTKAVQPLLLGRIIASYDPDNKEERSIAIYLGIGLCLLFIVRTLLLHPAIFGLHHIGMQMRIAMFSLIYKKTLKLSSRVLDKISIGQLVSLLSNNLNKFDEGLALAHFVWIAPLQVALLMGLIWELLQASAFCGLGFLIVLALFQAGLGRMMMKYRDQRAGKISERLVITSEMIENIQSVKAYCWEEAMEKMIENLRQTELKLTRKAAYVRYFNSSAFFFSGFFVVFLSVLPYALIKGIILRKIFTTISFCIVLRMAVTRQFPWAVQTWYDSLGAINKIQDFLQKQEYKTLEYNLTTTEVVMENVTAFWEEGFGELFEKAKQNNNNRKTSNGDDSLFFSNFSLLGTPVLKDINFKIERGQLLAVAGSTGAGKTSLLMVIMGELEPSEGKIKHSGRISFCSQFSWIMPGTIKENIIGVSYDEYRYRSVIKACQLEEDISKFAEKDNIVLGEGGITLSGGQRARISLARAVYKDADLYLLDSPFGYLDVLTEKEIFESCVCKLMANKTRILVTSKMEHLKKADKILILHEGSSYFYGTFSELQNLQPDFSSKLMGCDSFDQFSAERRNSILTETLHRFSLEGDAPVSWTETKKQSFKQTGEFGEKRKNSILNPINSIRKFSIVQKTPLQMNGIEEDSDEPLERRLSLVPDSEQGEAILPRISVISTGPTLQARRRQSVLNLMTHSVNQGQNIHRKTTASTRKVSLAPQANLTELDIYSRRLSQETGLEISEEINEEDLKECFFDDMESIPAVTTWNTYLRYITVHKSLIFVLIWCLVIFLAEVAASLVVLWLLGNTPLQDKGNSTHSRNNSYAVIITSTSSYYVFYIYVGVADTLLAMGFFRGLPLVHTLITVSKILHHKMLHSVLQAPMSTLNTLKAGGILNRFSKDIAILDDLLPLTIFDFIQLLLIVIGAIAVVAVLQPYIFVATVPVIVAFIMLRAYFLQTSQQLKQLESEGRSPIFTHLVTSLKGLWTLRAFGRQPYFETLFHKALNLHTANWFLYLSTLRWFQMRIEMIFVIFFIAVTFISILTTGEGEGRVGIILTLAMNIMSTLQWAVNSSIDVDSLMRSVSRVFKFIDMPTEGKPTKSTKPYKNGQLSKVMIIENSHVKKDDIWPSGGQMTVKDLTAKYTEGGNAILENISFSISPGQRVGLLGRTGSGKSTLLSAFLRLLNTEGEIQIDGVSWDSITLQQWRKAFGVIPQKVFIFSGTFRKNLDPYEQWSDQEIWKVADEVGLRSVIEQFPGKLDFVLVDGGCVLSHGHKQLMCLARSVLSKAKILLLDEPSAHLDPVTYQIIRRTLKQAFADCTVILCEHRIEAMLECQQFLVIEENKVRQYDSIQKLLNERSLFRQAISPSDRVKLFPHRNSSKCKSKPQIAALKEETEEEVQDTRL
Method in brief: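 Membrane potential dye (20 μM methyl oxonol, with 30 μM CaCCinh-A01 and 30 μM Chicago Sky Blue) loaded 25 min at room temperature into ROCK-inhibitor-seeded human enteroid cells. Chloride-free stimulation buffer triggered transport, followed by 15 min fluorescence. % Activity relative to 3 μM/3 μM/300 nM triple-combination control.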

[3] = target: T1, CFTR-mediated chloride transport in human intestinal epithelial enteroid cells; experiment: Membrane potential dye, Enteroid Assay B; assay type: cell-based; conditions: for EC50: read-out: Ent. B EC50
Experimental: Base medium (ADF+++) consisted of Advanced DMEM/Ham's F12, 2 mM Glutamax, 10 mM HEPES, […] penicillin/streptomycin.
Bath 1 Buffer consisted of 1 mM MgCl2, 160 mM NaCl, 4.5 mM KCl, 10 mM HEPES, 10 mM Glucose, 2 mM CaCl2.
Chloride Free Buffer consisted of 1 mM Magnesium Gluconate, 2 mM Calcium Gluconate, 4.5 mM Potassium Gluconate, 160 mM Sodium Gluconate, 10 mM HEPES, 10 mM Glucose.
Bath1 Dye Solution consisted of Bath 1 Buffer, 0.04% Pluronic F127, 20 μM Methyl Oxonol, 30 μM CaCCinh-A01, 30 μM Chicago Sky Blue.
Chloride Free Dye Solution consisted of Chloride Free Buffer, 0.04% Pluronic F127, 20 μM Methyl Oxonol, 30 μM CaCCinh-A01, 30 μM Chicago Sky Blue.
3. Enteroid Cell Harvesting and Seeding
Cells were recovered in cell recovery solution, collected by centrifugation at 650 rpm for 5 min at 4° C., resuspended in TryPLE and incubated for 5 min at 37° C. Cells were then collected by centrifugation at 650 rpm for 5 min at 4° C. and resuspended in IEMM containing 10 μM ROCK inhibitor (RI).
5. Membrane Potential Dye, Enteroid Assay B
Briefly, cells were washed 5 times in Bath 1 Buffer. Bath 1 Dye Solution was added and the cells were incubated for 25 min at room temperature. Following dye incubation, cells were washed 3 times in Chloride Free Dye Solution. Chloride transport was initiated by addition of Chloride Free Dye Stimulation Solution and the fluorescence signal was read for 15 min.

[4] = enteroid cells incubated with test compound 18-24 hours, acute 10 μM forskolin and 300 nM N-[2,4-bis(1,1-dimethylethyl)-5-hydroxyphenyl]-1,4-dihydro-4-oxoquinoline-3-carboxamide
[5] = percentage of chloride transport of triple combination control (3 μM N-[(6-amino-2-pyridyl)sulfonyl]-6-(3-fluoro-5-isobutoxy-phenyl)-2-[(4S)-2,2,4-trimethylpyrrolidin-1-yl]pyridine-3-carboxamide based)
[6] = percentage of chloride transport of triple combination control (1 μM (14S)-8-[3-(2-{Dispiro[2.0.2.1]heptan-7-yl}ethoxy)-1H-pyrazol-1-yl]-... trione based)

Molecule: Cc1cccc(C)c1-c1cc2nc(n1)NS(=O)(=O)c1cccc(c1)C(=O)N1C(c3cncc(N(C)C4CCC4)n3)CC[C@H](O2)[C@H]1CC(C)C (some centres unmarked)
- ring closure, yield after HPLC ([1]; from Cc1cccc(C)c1-c1cc(Cl)nc(NS(=O)(=O)c2cccc(C(=O)N3C(c4cncc(N(C)C5CCC5)n4)CC[C@H](O)[C@H]3CC(C)C)c2)n1, snar bond, NaH, DMF, 21.5 mM, 24.0 h): 4%
- ring closure, yield after HPLC ([1]; from Cc1cccc(C)c1-c1cc(O[C@H]2CCC(c3cncc(N(C)C4CCC4)n3)N[C@@H]2CC(C)C)nc(NS(=O)(=O)c2cccc(C(=O)O)c2)n1, amide bond, CDMT/NMM, DMF, 16.6 mM, 48.0 h, 2 steps): 31.6%

Molecule: Cc1cccc(C)c1-c1cc2nc(n1)NS(=O)(=O)c1cccc(c1)C(=O)N1CC(CCC1c1ccccc1)O2 (centres unmarked)
- ring closure, yield after HPLC ([1]; from Cc1cccc(C)c1-c1cc(OC2CCC(c3ccccc3)NC2)nc(NS(=O)(=O)c2cccc(C(=O)O)c2)n1, amide bond, HATU/DIEA, DMF, 156.0 mM, 25.0 °C, 0.083 h, 3 steps): 37%
- ring closure, yield after HPLC ([1]; from Cc1cccc(C)c1-c1cc(OC2CCC(c3ccccc3)NC2)nc(NS(=O)(=O)c2cccc(C(=O)Oc3c(F)c(F)c(F)c(F)c3F)c2)n1, amide bond, thermal (OPfp ester), NMP, 36.0 mM, 130.0 °C, 1.0 h, 4 steps): 7%

Molecule: Cc1cccc(C)c1-c1cc2nc(n1)NS(=O)(=O)c1cccc(c1)C(=O)N1CC(O2)C2CCCN(C)C2C1 (centres unmarked)
- ring closure, yield after HPLC ([1]; from Cc1cccc(C)c1-c1cc(OC2CNCC3C2CCCN3C)nc(NS(=O)(=O)c2cccc(C(=O)O)c2)n1, amide bond, HATU/DIEA, DMF, 27.2 mM, 25.0 °C, 0.67 h): 10%

Molecule: Cc1cccc(C)c1-c1cc2nc(n1)NS(=O)(=O)c1cccc(c1)C(=O)N1CC(O2)c2ccccc2C1CC(C)C (centres unmarked)
- ring closure, yield after HPLC ([1]; from Cc1cccc(C)c1-c1cc(OC2CNC(CC(C)C)c3ccccc32)nc(NS(=O)(=O)c2cccc(C(=O)O)c2)n1, amide bond, HATU/DIEA, DMF, 256.0 mM, 1.0 h): 8%

Molecule: Cc1cccc(C)c1-c1cc2nc(n1)NS(=O)(=O)c1cccc(c1)C(=O)N1CC3CCCN(C)C3C(C1)O2 (centres unmarked)
- ring closure, yield after HPLC ([1]; from 3-[[4-(2,6-dimethylphenyl)-6-[(1-methyl-3,4,4a,5,6,7,8,8a-octahydro-2H-1,6-naphthyridin-8-yl)oxy]pyrimidin-2-yl]sulfamoyl]benzoic acid (Dihydrochloride salt), amide bond, HATU/DIEA, 25.0 °C): 19%

Molecule: Cc1cccc(C)c1-c1cc2nc(n1)NS(=O)(=O)c1cccc(c1)C(=O)N1CCCC(O2)C1CC(C)C (centres unmarked)
- ring closure, yield after HPLC ([1]; from Cc1cccc(C)c1-c1cc(Cl)nc(NS(=O)(=O)c2cccc(C(=O)N3CCCC(O)C3CC(C)C)c2)n1, snar bond, NaH, DMF, 17.2 mM, 25.0 °C, 40.0 h): 17%
- ring closure, yield after HPLC ([1]; from Cc1cccc(C)c1-c1cc(Cl)nc(NS(=O)(=O)c2cccc(C(=O)N3CCCC(O)C3CC(C)C)c2)n1, snar bond, NaH, DMF, 18.3 mM, 25.0 °C, 24.0 h): 24%

Molecule: Cc1cccc(C)c1-c1cc2nc(n1)NS(=O)(=O)c1cccc(c1)C(=O)N1CCOC[C@@H]1C(Cc1ccccc1)O2 (some centres unmarked)
- ring closure, yield after HPLC ([1]; from Cc1cccc(C)c1-c1cc(OC(Cc2ccccc2)[C@H]2COCCN2)nc(NS(=O)(=O)c2cccc(C(=O)O)c2)n1, amide bond, HATU/DIEA, DMF, 61.0 mM, 25.0 °C, 1.5 h): 74%

Molecule: Cc1cccc(C)c1-c1cc2nc(n1)NS(=O)(=O)c1cccc(c1)C(=O)N1Cc3cc(C(C)(C)C)ccc3[C@H](O2)[C@H]1CC(C)(C)C
- ring closure, yield after HPLC ([1]; from Cc1cccc(C)c1-c1cc(O[C@H]2c3ccc(C(C)(C)C)cc3CN[C@@H]2CC(C)(C)C)nc(NS(=O)(=O)c2cccc(C(=O)O)c2)n1, amide bond, HATU/NaOtBu, DMF/THF, 0.25 h, 2 steps): 3%

Molecule: Cc1cccc(C)c1-c1cc2nc(n1)NS(=O)(=O)c1cccc(c1)C(=O)N1Cc3cc(C(F)(F)F)ccc3[C@@H](O2)[C@H]1CC(C)C
- ring closure, yield after HPLC ([1]; from Cc1cccc(C)c1-c1cc(O[C@@H]2c3ccc(C(F)(F)F)cc3CN[C@@H]2CC(C)C)nc(NS(=O)(=O)c2cccc(C(=O)O)c2)n1, amide bond, HATU/NaOtBu, DMF/THF, 0.25 h, 3 steps): 3%

Molecule: Cc1cccc(C)c1-c1cc2nc(n1)NS(=O)(=O)c1cccc(c1)C(=O)N1Cc3cc(C(F)(F)F)ccc3[C@H](O2)[C@H]1CC(C)C
- ring closure, yield after HPLC ([1]; from Cc1cccc(C)c1-c1cc(O[C@H]2c3ccc(C(F)(F)F)cc3CN[C@@H]2CC(C)C)nc(NS(=O)(=O)c2cccc(C(=O)O)c2)n1, amide bond, HATU/NaOtBu, DMF/THF, 0.25 h, 3 steps): 5%

Molecule: Cc1cccc(C)c1-c1cc2nc(n1)NS(=O)(=O)c1cccc(c1)C(=O)N1Cc3ccncc3C(C1)O2 (centres unmarked)
- ring closure, yield after HPLC ([1]; from Cc1cccc(C)c1-c1cc(OC2CNCc3ccncc32)nc(NS(=O)(=O)c2cccc(C(=O)O)c2)n1, amide bond, HATU/DIEA, DMF, 23.5 mM, 0.5 h, 2 steps): 3%

Molecule: Cc1ccccc1-c1cc2nc(n1)NS(=O)(=O)c1cccc(c1)C(=O)N1Cc3ccccc3[C@H](O2)[C@H]1CC(C)C
- ring closure, yield after HPLC ([1]; from Cc1ccccc1-c1cc(O[C@H]2c3ccccc3CN[C@@H]2CC(C)C)nc(NS(=O)(=O)c2cccc(C(=O)O)c2)n1, amide bond, HATU/DIEA, DMF, 190.0 mM, 0.5 h, 3 steps): 18%

Molecule: 12-(2,6-dimethylphenyl)-23-(2-methylpropyl)-15-oxa-8λ^6-thia-1,9,11,25-tetraazapentacyclo[14.7.1.13,7.110,14.017,22]hexacosa-3(26),4,6,10(25),11,13,17,19,21-nonaene-2,8,8-trione, major diastereomer
- ring closure, yield after HPLC ([1]; amide bond, HATU/DIEA, DMF, 115.0 mM): 53%

Molecule: Cc1cccc(C)c1-c1cc2nc(n1)NS(=O)(=O)c1cccc(c1)C(=O)N1Cc3ccccc3[C@H](C1)O2 (stereo in doubt) [Compound 319]
- EC50 [2, 4]: < 1000 nM
- Ent. A Max Activity (%) [2, 5]: +++ (+++ is >60%)
- EC50 [3, 4]: < 1000 nM
- Ent. B Max Activity (%) [3, 6]: +++ (+++ is >60%)

Molecule: Cc1cccc(C)c1-c1cc2nc(n1)NS(=O)(=O)c1cccc(c1)C(=O)N1CCN(CCC(C)(C)C)C[C@H](C1)O2 [Compound 1, (16R)-18-(3,3-Dimethylbutyl)-12-(2,6-dimethylphenyl)-15-oxa-8λ^6-thia-1,9,11,18,22-pentaazatetracyclo[14.4.1.13,7.110,14]tricosa-3,5,7(23),10,12,14(22)-hexaene-2,8,8-trione]
- EC50 [2, 4]: < 1000 nM
- Ent. A Max Activity (%) [2, 5]: +++ (+++ is >60%)
- EC50 [3, 4]: < 1000 nM
- Ent. B Max Activity (%) [3, 6]: +++ (+++ is >60%)

Molecule: Cc1cccc(C)c1-c1cc2nc(n1)NS(=N)(=O)c1cccc(c1)C(=O)N1CCN(C(=O)OC(C)(C)C)CC(C1)O2 (centres unmarked) [Compound 239, tert-Butyl 12-(2,6-dimethylphenyl)-8-imino-2,8-dioxo-15-oxa-8λ^6-thia-1,9,11,18,22-pentaazatetracyclo[14.4.1.13,7.110,14]tricosa-3,5,7(23),10,12,14(22)-hexaene-18-carboxylate]
- Ent. A Max Activity (%) ([2]; Enteroid Assay A): +++ (+++ is >600%)
- EC50 ([2]; Enteroid Assay A): 1000 to 3000 nM
- Ent. B Max Activity (%) ([3]; Enteroid Assay B): +++ (+++ is >600%)
- EC50 ([3]; Enteroid Assay B): 1000 to 3000 nM

Molecule: Cc1cccc(C)c1-c1cc2nc(n1)NS(=N)(=O)c1cccc(c1)C(=O)N1CCN(CCC(C)(C)C)CC(C1)O2 (centres unmarked) [Compound 243, 18-(3,3-Dimethylbutyl)-12-(2,6-dimethylphenyl)-8-imino-15-oxa-8λ^6-thia-1,9,11,18,22-pentaazatetracyclo[14.4.1.13,7.110,14]tricosa-3,5,7(23),10,12,14(22)-hexaene-2,8-dione]
- Ent. A Max Activity (%) ([2]; Enteroid Assay A): +++ (+++ is >600%)
- EC50 ([2]; Enteroid Assay A): < 1000 nM
- Ent. B Max Activity (%) ([3]; Enteroid Assay B): +++ (+++ is >600%)
- EC50 ([3]; Enteroid Assay B): < 1000 nM

Molecule: Cc1cccc(C)c1-c1cc2nc(n1)NS(=N)(=O)c1cccc(c1)C(=O)N1CCN(Cc3ccccc3)CC(C1)O2 (centres unmarked) [Compound 248]
- Ent. A Max Activity (%) ([2]; Enteroid Assay A): ++ (++ is 30-60%)
- EC50 ([2]; Enteroid Assay A): 1000 to 3000 nM
- Ent. B Max Activity (%) ([3]; Enteroid Assay B): +++ (+++ is >600%)
- EC50 ([3]; Enteroid Assay B): < 1000 nM

Molecule: Cc1cccc(C)c1-c1cc2nc(n1)NS(=O)(=O)c1cccc(c1)C(=O)N1CCN(CCC(C)(C)C)C[C@@H]1CO2 [Compound 298]
- EC50 [2, 4]: < 1000 nM
- Ent. A Max Activity (%) [2, 5]: +++ (+++ is >60%)
- EC50 [3, 4]: < 1000 nM
- Ent. B Max Activity (%) [3, 6]: +++ (+++ is >60%)

Molecule: Cc1cccc(C)c1-c1cc2nc(n1)NS(=O)(=O)c1cncc(c1)C(=O)N1Cc3cc(C(C)(C)C)ccc3[C@H](O2)[C@H]1CC(C)C [Compound 331]
- Ent. A Max Activity (%) ([2]; Enteroid Assay A): +++ (+++ is >600%)
- EC50 ([2]; Enteroid Assay A): < 1000 nM
- Ent. B Max Activity (%) ([3]; Enteroid Assay B): +++ (+++ is >600%)
- EC50 ([3]; Enteroid Assay B): < 1000 nM
